Results as given in ChEMBL document CHEMBL1143950, “Antifungal and cytotoxic activities of some N-substituted aniline derivatives bearing a hetaryl fragment” (Bioorg Med Chem, 2008).
In brackets after ≈: the same amount, converted by molar mass.

Legend:
Format in all cases: functional
[1] = tested on: Candida albicans; experiment: Antifungal activity against Candida albicans ATCC 10231 by micro-broth dilution method
[2] = tested on: Candida tropicalis; experiment: Antifungal activity against Candida tropicalis C131 by micro-broth dilution method
[3] = tested on: Saccharomyces cerevisiae; experiment: Antifungal activity against Saccharomyces cerevisiae ATCC 9763 by microbroth dilution method
[4] = tested on: Cryptococcus neoformans; experiment: Antifungal activity against Cryptococcus neoformans ATCC 32264 by microbroth dilution method
[5] = tested on: Aspergillus fumigatus; experiment: Antifungal activity against Aspergillus fumigatus ATCC 26934 by micro-broth dilution method
[6] = tested on: Aspergillus flavus; experiment: Antifungal activity against Aspergillus flavus ATCC 9170 by micro-broth dilution method
[7] = tested on: Trichophyton rubrum; experiment: Antifungal activity against Trichophyton rubrum C113 by microbroth dilution method
[8] = tested on: Aspergillus niger; experiment: Antifungal activity against Aspergillus niger ATCC 9029 by micro-broth dilution method
[9] = tested on: Nannizzia gypsea; experiment: Antifungal activity against Microsporum gypseum C115 by microbroth dilution method
[10] = tested on: Trichophyton mentagrophytes; experiment: Antifungal activity against Trichophyton mentagrophytes ATCC 9972 by micro-broth dilution method

MIC [1] | MIC [2] | MIC [3] | MIC [4] | MIC [5] | MIC [6] | MIC [7] | MIC [8] | MIC [9] | MIC [10] | Compound
250 µg/mL (≈ 1440 µM) | 250 µg/mL (≈ 1440 µM) | 250 µg/mL (≈ 1440 µM) | 125 µg/mL (≈ 722 µM) | 250 µg/mL (≈ 1440 µM) | 250 µg/mL (≈ 1440 µM) | 125 µg/mL (≈ 722 µM) | 250 µg/mL (≈ 1440 µM) | 250 µg/mL (≈ 1440 µM) | 125 µg/mL (≈ 722 µM) | c1ccc(NCc2ccoc2)cc1
> 250 µg/mL | > 250 µg/mL | > 250 µg/mL | 125 µg/mL (≈ 566 µM) | > 250 µg/mL | > 250 µg/mL | 250 µg/mL (≈ 1130 µM) | > 250 µg/mL | > 250 µg/mL | 250 µg/mL (≈ 1130 µM) | Cn1cccc1CNc1ccc(Cl)cc1
> 250 µg/mL | 200 µg/mL (≈ 645 µM) | 200 µg/mL (≈ 645 µM) | 50 µg/mL (≈ 161 µM) | 50 µg/mL (≈ 161 µM) | 50 µg/mL (≈ 161 µM) | 25 µg/mL (≈ 80.6 µM) | 100 µg/mL (≈ 322 µM) | 50 µg/mL (≈ 161 µM) | 25 µg/mL (≈ 80.6 µM) | Ic1ccc(NCc2cccnc2)cc1
62.5 µg/mL (≈ 279 µM) | 62.5 µg/mL (≈ 279 µM) | 250 µg/mL (≈ 1120 µM) | 62.5 µg/mL (≈ 279 µM) | 125 µg/mL (≈ 559 µM) | 250 µg/mL (≈ 1120 µM) | 62.5 µg/mL (≈ 279 µM) | 250 µg/mL (≈ 1120 µM) | 62.5 µg/mL (≈ 279 µM) | 62.5 µg/mL (≈ 279 µM) | Clc1ccc(NCc2ccsc2)cc1
> 250 µg/mL | > 250 µg/mL | > 250 µg/mL | > 250 µg/mL | > 250 µg/mL | > 250 µg/mL | 25 µg/mL (≈ 109 µM) | > 250 µg/mL | 25 µg/mL (≈ 109 µM) | 25 µg/mL (≈ 109 µM) | O=[N+]([O-])c1cccc(NCc2cccnc2)c1
62.5 µg/mL (≈ 301 µM) | 62.5 µg/mL (≈ 301 µM) | 50 µg/mL (≈ 241 µM) | 50 µg/mL (≈ 241 µM) | 50 µg/mL (≈ 241 µM) | 50 µg/mL (≈ 241 µM) | 6.25 µg/mL (≈ 30.1 µM) | 62.5 µg/mL (≈ 301 µM) | 12.5 µg/mL (≈ 60.2 µM) | 12.5 µg/mL (≈ 60.2 µM) | Clc1ccc(NCc2ccco2)cc1
> 250 µg/mL | > 250 µg/mL | > 250 µg/mL | > 250 µg/mL | > 250 µg/mL | > 250 µg/mL | 25 µg/mL (≈ 123 µM) | > 250 µg/mL | 12.5 µg/mL (≈ 61.5 µM) | 50 µg/mL (≈ 246 µM) | Cc1ccc(NCc2cccs2)cc1
50 µg/mL (≈ 236 µM) | 50 µg/mL (≈ 236 µM) | 100 µg/mL (≈ 471 µM) | 100 µg/mL (≈ 471 µM) | 25 µg/mL (≈ 118 µM) | 25 µg/mL (≈ 118 µM) | 100 µg/mL (≈ 471 µM) | 12.5 µg/mL (≈ 58.9 µM) | 100 µg/mL (≈ 471 µM) | 100 µg/mL (≈ 471 µM) | Cc1ccc(NCc2cccc(N)c2)cc1
250 µg/mL (≈ 1320 µM) | 250 µg/mL (≈ 1320 µM) | 250 µg/mL (≈ 1320 µM) | 250 µg/mL (≈ 1320 µM) | 250 µg/mL (≈ 1320 µM) | 250 µg/mL (≈ 1320 µM) | 125 µg/mL (≈ 660 µM) | 250 µg/mL (≈ 1320 µM) | 250 µg/mL (≈ 1320 µM) | 125 µg/mL (≈ 660 µM) | c1ccc(NCc2ccsc2)cc1
62.5 µg/mL (≈ 248 µM) | 75 µg/mL (≈ 297 µM) | 50 µg/mL (≈ 198 µM) | 50 µg/mL (≈ 198 µM) | 50 µg/mL (≈ 198 µM) | 50 µg/mL (≈ 198 µM) | 3.12 µg/mL (≈ 12.4 µM) | 62.5 µg/mL (≈ 248 µM) | 6.25 µg/mL (≈ 24.8 µM) | 12.5 µg/mL (≈ 49.6 µM) | Brc1ccc(NCc2ccco2)cc1
> 250 µg/mL | > 250 µg/mL | > 250 µg/mL | > 250 µg/mL | > 250 µg/mL | > 250 µg/mL | 125 µg/mL (≈ 503 µM) | > 250 µg/mL | 250 µg/mL (≈ 1010 µM) | 125 µg/mL (≈ 503 µM) | N#CC(Nc1ccc(Cl)cc1)c1ccsc1 (stereo not given)
> 250 µg/mL | > 250 µg/mL | > 250 µg/mL | 250 µg/mL (≈ 1170 µM) | > 250 µg/mL | > 250 µg/mL | 62.5 µg/mL (≈ 293 µM) | > 250 µg/mL | 125 µg/mL (≈ 586 µM) | 62.5 µg/mL (≈ 293 µM) | C=CCC(Nc1ccccc1)c1ccoc1 (stereo not given)
> 250 µg/mL | > 250 µg/mL | > 250 µg/mL | > 250 µg/mL | > 250 µg/mL | > 250 µg/mL | 250 µg/mL (≈ 1170 µM) | > 250 µg/mL | > 250 µg/mL | 250 µg/mL (≈ 1170 µM) | N#CC(Nc1ccccc1)c1ccsc1 (stereo not given)
> 250 µg/mL | > 250 µg/mL | > 250 µg/mL | 250 µg/mL (≈ 1190 µM) | 250 µg/mL (≈ 1190 µM) | 250 µg/mL (≈ 1190 µM) | 125 µg/mL (≈ 597 µM) | 250 µg/mL (≈ 1190 µM) | 250 µg/mL (≈ 1190 µM) | 125 µg/mL (≈ 597 µM) | N#CC(Nc1ccccc1)c1ccncc1 (stereo not given)
100 µg/mL (≈ 523 µM) | 125 µg/mL (≈ 654 µM) | 125 µg/mL (≈ 654 µM) | 100 µg/mL (≈ 523 µM) | 100 µg/mL (≈ 523 µM) | > 250 µg/mL | 25 µg/mL (≈ 131 µM) | 250 µg/mL (≈ 1310 µM) | 100 µg/mL (≈ 523 µM) | 62.5 µg/mL (≈ 327 µM) | Fc1ccc(NCc2ccco2)cc1
> 250 µg/mL | > 250 µg/mL | > 250 µg/mL | > 250 µg/mL | > 250 µg/mL | > 250 µg/mL | 125 µg/mL (≈ 545 µM) | > 250 µg/mL | 125 µg/mL (≈ 545 µM) | 125 µg/mL (≈ 545 µM) | C=CCC(Nc1ccccc1)c1cccs1 (stereo not given)
> 250 µg/mL | > 250 µg/mL | > 250 µg/mL | > 250 µg/mL | > 250 µg/mL | > 250 µg/mL | 250 µg/mL (≈ 959 µM) | > 250 µg/mL | > 250 µg/mL | 250 µg/mL (≈ 959 µM) | C=CCC(Nc1ccc(Cl)cc1)c1cccn1C (stereo not given)
